Data from patent US8802633B1, “Autophagy-inducing peptide analogs” (Board of Regents, The University of Texas System, priority 2013, dated 2014).
No end group written: not given here.

Columns and labels:
LC3 = assay: western blot detection of the conversion of LC3-I into LC3-II; format: cell-based; conditions: 10 micomolar peptide, compared to 10 micomolar Tat-Beclin 1 compound
Protocol: (§1) To further assess the components of the beclin1 peptide required for autophagy-inducing activity, a series of shorter peptides were developed. Activity was measured by biochemical autophagy assays including western blot detection of p62 (a protein degraded by autophagy) and western blot detection of the conversion of LC3-I into LC3-II (the lipidated autophagosome-associated form of LC3).

p62 = assay: western blot detection of p62 (a protein degraded by autophagy); format: cell-based; conditions: 10 micomolar peptide, compared to 10 micomolar Tat-Beclin 1 compound
Protocol: as §1

Substance: Tat-GG-VFNATFEIWHD (Tat-GGVFNATFEIWHD) [tat protein transduction domain linked through a diglycine linker to Beclin 1 residues 269-279 with H275E and S279D]
- LC3-II conversion (LC3): increased LC3-II conversion
- p62 degradation (p62): increased p62 degradation
